Laboratory results: article PMC5641083, “Blockage of FOXP3 transcription factor dimerization and FOXP3/AML1 interaction inhibits T regulatory cell activity: sequence optimization of a peptide inhibitor” (Oncotarget, 2017)
pIC50: −log10 of the molar value. Read-outs that look alike come from different tables or passages of the source. Where a SMILES comes first, the peptide text is derived from it.

How the values were obtained:
[1] = test system: FOXP3-6His (native FOXP3, 1-421); assay: Surface plasmon resonance, peptide binding to FOXP3-coated chip; settings: for FOXP3 binding by SPR (in words): peptides at 2.5 μM, N-terminal acetylation and C-terminal amidation
Procedure: Using truncated versions of FOXP3, we attempted to identify the FOXP3 domain interacting with peptide P60, described previously by or group as a FOXP3 inhibitory peptide. Thus, besides native FOXP3 we prepared the deletion mutants FOXP3 (1-331) (lacking the C-terminus of FOXP3), FOXP3 (177-421) (lacking the N-terminus) and FOXP3 (1-177) (encompassing only the N-terminus of FOXP3) (Figure 1A). They were coated on a chip for SPR experiments.
Screening of peptide binding to FOXP3 was performed by surface plasmon resonance (SPR) using ProteOn XPR36 (Bio-Rad, Hercules CA, USA) optical biosensor. Recombinant protein FOXP3-6His and the indicated truncated versions of FOXP3 were produced and purified from E-coli and immobilized covalently onto a GLM sensor chip (Bio-Rad) using sulfo-NHS and EDC (Bio-Rad) coupling reagents. After protein immobilization, chip surface was treated with ethanolamine to deactivate the excess of reactive esters. Individual peptide solutions (1–20 μM) were injected by triplicate in running buffer (Phosphate buffered saline, 0.005% (v/v) Tween 20, pH 7.4) at a flow of 30 μl/min. The interspot signal (obtained in the chip surface not immobilized with protein) was used as reference.

[2] = molecular target: T1, FOXP3/AML1 interaction (Homo sapiens, UniProt Q9BZS1); assay: AlphaScreen FOXP3/AML1 heterodimerization assay; assay type: biochemical
T1 sequence (Q9BZS1 1-431): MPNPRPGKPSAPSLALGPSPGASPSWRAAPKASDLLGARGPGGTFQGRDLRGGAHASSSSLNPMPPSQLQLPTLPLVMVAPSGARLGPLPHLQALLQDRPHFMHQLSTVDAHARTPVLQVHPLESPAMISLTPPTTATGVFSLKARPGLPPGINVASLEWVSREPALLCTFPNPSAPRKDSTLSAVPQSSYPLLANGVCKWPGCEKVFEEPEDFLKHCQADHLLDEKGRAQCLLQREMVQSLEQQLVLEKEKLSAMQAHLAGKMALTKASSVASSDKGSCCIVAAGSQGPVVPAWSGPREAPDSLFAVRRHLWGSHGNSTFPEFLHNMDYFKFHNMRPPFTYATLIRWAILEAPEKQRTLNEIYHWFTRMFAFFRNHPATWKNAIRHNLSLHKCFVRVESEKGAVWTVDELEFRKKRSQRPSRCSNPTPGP
Text: (§1) AML1 is required for IL-2 and IFN-γ gene expression in conventional CD4+ T cells and its interaction with FOXP3 is needed for the immunosuppressive activity of Tregs. On the other hand, it has been described that the leucine zipper region is necessary and sufficient to mediate FOXP3 homo-dimerization, which is required for its function as a transcriptional regulator [13, 15, 20]. Thus, since P60 binds to this FOXP3 intermediate region, we analyzed if it could act as a decoy molecule to inhibit FOXP3 homodimerization or the FOXP3-AML1 heterodimerization. The capacity of FOXP3 to homodimerize was measured using the […] assay platform AlphaScreen™ (Perkin Elmer). Previous protein-cross titration experiment using different concentrations of FOXP3-6His (from 1000 to 0 nM) and GST-FOXP3 (from 300 to 0 nM) allowed us to define the optimal protein concentrations to analyze FOXP3 homodimerization (Figure 2A). […] We also tested if GST tagged FOXP3 was able to interact with AML1 protein tagged with 6 His at the N-terminus. As shown in the cross titration experiments in Figure 2C, a specific FOXP3-AML1 heterodimerization was visualized as an increase in the AlphaScreen signal.
(§2) FOXP3/AML1 heterodimerization, as well as FOXP3/FOXP3 homodimerization were analyzed by Alphascreen technology according to the manufacturer's instructions (Perkin Elmer, Benelux) as previously described.

[3] = test system: murine Treg cells; assay type: cell-based, BALB/c mice
Text: Results shown in Figures 1–3 correspond to cell-free assays where peptides can interact directly with its corresponding protein partner. However, FOXP3 binding peptides need to enter into the cell in order to inhibit FOXP3 functions. Once we identified some mutants with higher capacity to bind FOXP3, we studied their capacity to inhibit the suppressor activity of natural Tregs in vitro. Thus, we activated effector T cells with anti-CD3 monoclonal antibody in the presence of Tregs, and analyzed the capacity of each peptide to restore T cell proliferation inhibited by Treg cells. […] Indeed, when results from the point-variant screening are represented as a heat map, it is clear that introduction of an alanine at positions 2, 5 and 11 improved activity of the original P60, whereas alanine mutations at positions 1, 7, 8, 9, 10 and 12 are detrimental (Figure 4C).
Isolation of murine CD4^+CD25^+, and CD4^+CD25^− T-cells was performed from murine spleen cells by using murine regulatory T-cell isolation kit (Miltenyi Biotec, Bergisch Gladbach, Germany) according to manufacturer's instructions. The purity of the resulting T-cell populations was confirmed to be > 95% by flow cytometry.
Inhibition of murine T regulatory cell function was measured in an in vitro assay of T-cell stimulation. CD25+ depleted spleen cells (10^5 cells/well) from BALB/c mice were stimulated in vitro with 2, 5 μg/ml of anti-mouse CD3 antibody (Pharmingen) in the presence/absence of purified Treg cells (10^4 cells/well). T-cell proliferation was measured 3 days later as previously described.

[4] = Metabolic stability in human liver microsomes; assay type: in vitro ADME; settings: 1 μM, estimated by first order kinetics
Procedure: (§3) Metabolic stability was measured by Wuxi AppTech (Shanghai, China). Briefly, peptides (1 μM, 5% MeOH in potassium phosphate buffer) were incubated with human (catalogue no. 452161 from BD Gentest) and mouse (catalogue no. M1000, Xenotech) liver microsomes at 37°C for 10 min. Liver microsomes were at a final assay concentration of 0.7 mg protein/mL. The reaction was started by the addition of 90 μL of NADP cofactor solution and stopped by the addition of 300 μL of stop solution (acetonitrile at 4°C, including 100 ng/mL tolbutamide as an internal standard) after 20 min of incubation. The samples were shaken for 5 min and then centrifuged for 20 min at 1500 g. A 100 μL aliquot of the supernatant was transferred to eight new 96-well plates with 300 μL of HPLC water and centrifuged at 1500 g for LC-MS/MS analysis (Shimadzu LC 10-AD−API 4000). An injection volume of 10 μL was added to a Phenomenex Synergi C18 column eluting with formic acid in water or acetonitrile at a flow rate of 800 μL/min. The percent loss of parent compound was calculated from the peak area ratio of the analyte/internal standard. Compounds and positive controls were tested in duplicate.

[5] = Metabolic stability in mouse liver microsomes; assay type: in vitro ADME; settings: 1 μM, estimated by first order kinetics
Procedure: as §3

[6] = molecular target: T2, FOXP3/FOXP3 homodimerization (GST-FOXP3 and FOXP3-His) (Homo sapiens, UniProt Q9BZS1); assay: AlphaScreen FOXP3 homodimerization assay; assay type: biochemical; settings: GST-FOXP3 40 nM, FOXP3-His 300 nM
T2 construct: made in house; host or cells: E. coli
T2 sequence (Q9BZS1 1-421): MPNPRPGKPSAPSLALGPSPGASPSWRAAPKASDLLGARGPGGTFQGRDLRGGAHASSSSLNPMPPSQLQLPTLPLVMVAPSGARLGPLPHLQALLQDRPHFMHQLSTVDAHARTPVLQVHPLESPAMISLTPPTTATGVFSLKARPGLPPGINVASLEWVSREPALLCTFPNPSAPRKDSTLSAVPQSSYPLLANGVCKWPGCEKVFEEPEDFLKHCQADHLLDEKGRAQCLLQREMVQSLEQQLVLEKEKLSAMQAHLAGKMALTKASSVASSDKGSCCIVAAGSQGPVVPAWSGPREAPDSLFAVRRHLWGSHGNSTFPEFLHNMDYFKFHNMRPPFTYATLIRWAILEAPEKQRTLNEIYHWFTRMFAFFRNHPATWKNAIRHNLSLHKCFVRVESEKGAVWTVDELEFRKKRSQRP
Text: as §1, §2

[7] = test system: Hepa-129 cells; assay: Hepa-129 subcutaneous tumor rejection model; assay type: in vivo, C3H/HeN mice; settings: Hepa-129 s.c.
Procedure: Seven days after Hepa-129 cells injection, when the tumor reached 5 mm in diameter, mice were treated with CM-1215 (from days 7 to 16, 50μg/day/mouse) or anti-PD1 antibodies (50 μg/mice) at days 7 and 14. A group of mice treated with anti-PD1 received also 10 consecutive i.p. administrations of CM-1215 from days 7 to 16 (50 μg/day/mouse).
For tumor rejection experiments, Hepa-129 cells (10^6 cells/mouse), were injected subcutaneously (sc) in C3H/HeN mice (n = 6). Ten days later, when the tumor reached 5 mm in diameter, mice were randomly divided into different experimental groups. A group of mice were treated i.p. with anti-PD1 antibodies (50 μg/mouse). Antibody administration was repeated one week after this first administration. A group of mice treated with anti-PD1 also received the cyclic peptide CM-1215 from days 10 to 20 (50 μg/mice/day). Tumor size, presented as the average of two perpendicular diameters (millimetres), was measured at regular intervals. Mice were sacrificed when the mean tumor diameter was greater than 20 mm. […] Tumor size was monitored twice a week with a calliper and it was expressed according to the formula V = (length × width^2)/2. […]

Compound	FOXP3 binding by SPR (in words) [1]	Inhibition of FOXP3-AML1 heterodimerization (in words) [2]	pIC50 [3]	half-life [4]	half-life [5]	Inhibition of FOXP3 homodimerization (in words) [6]	pIC50 ([3]; in vitro cell based bioassay, read-out: IC50 to inhibit Treg activity)	FOXP3 binding capacity by SPR (in words) ([1]; FOXP3 coated on chip, mutants compared with original P60)	T1/2 [4]	Antitumor effect / survival, single agent (in words) ([7]; CM-1215 50μg/day/mouse i.p. days 7 to 16, anti-PD1 50 μg/mice days 7 and 14)	Antitumor activity in combination with anti-PD1 (in words) ([7]; anti-PD1 50 μg days 7 and 14 plus CM-1215 50 μg/day/mouse i.p. days 7 to 16, p < 0.001)
Ac-RAFQAFRKMWAFFAM-NH2 [P60-D2A-S5A-P11A]	improved very significantly the FOXP3 binding capacity	significantly improved the capacity of the original P60 peptide to inhibit this interaction	5.53	–	–	–	–	–	–	–	–
Ac-RAFQAFRKMWPFFAM-NH2 [P60-D2A-S5A]	improved FOXP3 binding	significantly improved the capacity of the original P60 peptide to inhibit this interaction	5.72	< 2.5 min	< 2.5 min	–	–	–	–	–	–
H-RAFQSFRKMWPFFAM-OH [P60-D2A]	–	inhibited	–	–	–	inhibited	4.57	–	–	–	–
CSCC[C@@H]1NC(=O)[C@H](C)NC(=O)[C@H](Cc2ccccc2)NC(=O)[C@H](Cc2ccccc2)NC(=O)[C@@H]2CCCN2C(=O)[C@H](Cc2c[nH]c3ccccc23)NC(=O)[C@H](CCSC)NC(=O)[C@H](CCCCN)NC(=O)[C@H](CCCNC(=N)N)NC(=O)[C@H](Cc2ccccc2)NC(=O)[C@H](C)NC(=O)[C@H](CCC(N)=O)NC(=O)[C@H](Cc2ccccc2)NC(=O)[C@H](C)NC(=O)[C@H](CCCNC(=N)N)NC1=O [CM-1215] (cyclo(RAFQAFRKMWPFFAM))	–	–	6.11	~8 min	~8 min	–	–	improved very significantly its capacity to bind to FOXP3	5.30 min	some beneficial effect on the percentage of survival, this response did not reach statistical significance	exhibited antitumor activity
